{"source": "patent US20060100291A1", "about": "“Antibacterial compounds” (priority 2001, published 2006)", "key": {"[1]": {"tested_on": "Bacillus subtilis (ATCC strain 19659)", "experiment": "Disc diffusion assay", "assay_type": "cell-based", "settings": "for BS activity: width of zone of growth inhibition / zone of inhibition at 60 µg/disc: disc assay dosed at 60 μg/disc, 24 h; for zone of inhibition at 60 µg/disc: read-out: BS activity: width of zone of growth inhibition", "experimental": "The compounds of Examples 1 to 7 were also tested against another Gram-positive bacterium, Bacillus subtilis (ATCC strain 19659), in disc diffusion assays. […] The positive control in this assay was the clinically proven antimicrobial agent chloramphenicol (30 μg/disc), which gave a 12 mm zone."}, "[2]": {"tested_on": "Methicillin Resistant Staphylococcus aureus (MRSA) (strain 1126)", "experiment": "MIC in Mueller Hinton broth, serial doubling dilutions", "assay_type": "cell-based", "experimental": "Minimum inhibitory concentrations [MIC] were tested in Mueller Hinton [MH] broth. The human pathogen Methicillin Resistant Staphylococcus aureus (MRSA) (strain 1126) was provided by the University of Otago. Glass vials (30 mL) containing MH broth (10 mL) were inoculated from an actively growing culture and incubated overnight at 37° C. A standardized procedure to suspend each compound in MH broth was used. Each compound (5 mg) was dissolved in ethanol (1 mL). MH broth (9 mL) was then added to the ethanol containing the compound, resulting in stock solution concentrations of 500 μg /mL.\nThe MIC for each compound was determined by carrying out 3 replicate serial dilutions in Nunc® 48 well microtiter plates. To test the MICs, each compound stock solution was vigorously mixed before I mL was dispensed aseptically by pipette into 3 of the 6 first wells of a microtiter plate. MH broth (0.5 mL) was dispensed into all wells of the microtiter plate except the first row. Serial doubling dilutions were carried out through 12 wells (1½ microtiter plates). Mixing was carried out by repeated pipetting of 100 μL amounts. 500 μL was discarded from the last wells to conserve the […] compound concentration. Each well was inoculated with an aliquot (25 μL) of MRSA suspension diluted by 10^−2. All test and control microtiter plates were incubated at 37° C. and read after 48 h and 72 h."}, "[3]": {"tested_on": "S. aureus PC-3 Vancomycin/Oxacillin resistant (GISA)", "experiment": "Broth microdilution MIC (THB)", "assay_type": "cell-based", "settings": "Staphylococcus aureus, three experiments", "experimental": "(§1) Minimum inhibitory concentrations (MICs) were determined using a broth microdilution method. Bacterial isolates were inoculated into Todd-Hewitt broth (THB) and incubated at 37 C with shaking (200 rpm) for 18 h. Overnight cultures were diluted to an OD of 0.01 (at […], 1 cm light path) to give a final inoculum for broth microdilution of OD 0.005. Doubling dilutions of the test compounds were prepared in THB in microtitre plates. Tween 80 (Sigma) was added at a final concentration of 14 % to enhance solubility. The range of concentrations tested (with doubling dilutions) was 16 μg/mL to 0.063 μg/mL. Microtitre plates were incubated at 37 ° C. for 18 h with gentle shaking. Plates were read using a microplate reader (Multiskan Ascent, Labsystems), measuring the OD at 595 nm. Minimum bactericidal concentrations (MBCs) were determined by placing 5 μL of culture from wells without growth onto THB plates and incubating at 37° C. for 18 h. The MBC was the lowest concentration without growth from the drop of culture."}, "[4]": {"tested_on": "S. aureus ATCC25923 Wild-type (fully susceptible)", "experiment": "Broth microdilution MIC (THB)", "assay_type": "cell-based", "settings": "three experiments", "experimental": "as §1"}, "[5]": {"tested_on": "S. aureus OUM1127 Erythromycin resistant", "experiment": "Broth microdilution MIC (THB)", "assay_type": "cell-based", "settings": "Staphylococcus aureus, three experiments", "experimental": "as §1"}, "[6]": {"tested_on": "E. faecium AR99/118 Ampicillin resistant", "experiment": "Broth microdilution MIC (THB)", "assay_type": "cell-based", "settings": "Enterococcus faecium, three experiments", "experimental": "as §1"}, "[7]": {"tested_on": "Enterococcus faecalis 8A-25 Vancomycin resistant (VRE, vanA)", "experiment": "Broth microdilution MIC (THB)", "assay_type": "cell-based", "settings": "E. faecalis 8A-25 vancomycin resistant (VRE, vanA), three experiments", "experimental": "as §1"}, "[8]": {"tested_on": "S. aureus ST94/1208 Oxacillin/Gentamicin resistant (cMRSA)", "experiment": "Broth microdilution MIC (THB)", "assay_type": "cell-based", "settings": "Staphylococcus aureus, three experiments", "experimental": "as §1"}, "[9]": {"tested_on": "S. aureus OUM1126 Oxacillin resistant (MRSA)", "experiment": "Broth microdilution MIC (THB)", "assay_type": "cell-based", "settings": "Staphylococcus aureus, three experiments", "experimental": "as §1"}, "[10]": {"tested_on": "Enterococcus faecalis ATCC29212 Wild-type (fully susceptible)", "experiment": "Broth microdilution MIC (THB)", "assay_type": "cell-based", "settings": "three experiments", "experimental": "as §1"}, "[11]": {"tested_on": "Enterococcus faecalis CD2-49 Gentamicin resistant", "experiment": "Broth microdilution MIC (THB)", "assay_type": "cell-based", "settings": "E. faecalis CD2-49 gentamicin resistant, three experiments", "experimental": "as §1"}, "[12]": {"tested_on": "S. aureus AS92/349 Mupirocin resistant", "experiment": "Broth microdilution MIC (THB)", "assay_type": "cell-based", "settings": "three experiments", "experimental": "as §1"}, "listera monocytogenes": {"tested_on": "listera monocytogenes", "experiment": "MIC against Listeria, by similar methods", "assay_type": "cell-based"}, "[13]": {"tested_on": "Enterococcus and S. aureus strains tested in Table 2", "experiment": "Bacteriostatic/bactericidal concentrations (MIC/MBC) over the strains of Table 2", "assay_type": "cell-based", "settings": "all strains of Table 2; read-out: Bacteriocidal concentration (MBC)", "experimental": "as §1"}, "[14]": {"tested_on": "Swiss male mice (Mus musculus)", "experiment": "Acute toxicity in mice, intraperitoneal injection", "assay_type": "in vivo", "settings": "for acute toxic effects: ip in cottonseed oil, up to 400 mg/kg, observed 6 h plus 18 h", "experimental": "Compound I has been tested in mice for acute toxicity.\nA single trial was completed using twenty-five Swiss male mice (Mus musculus), weighing 20 g±2 g. Mice were selected by gender and weight, individually identified and randomly placed in 5 cages of 5 mice each. Mice were injected intraperitoneally with one of five levels of antibiotic [0 (control), 1, 2, 4 and 8 mg/ml]. Cottonseed oil was used as a carrier solution for the test substance. One mL samples were mixed before being injected using 1.0 ml syringes and 21G needles. Mice were observed continuously for 6 hours and any deaths or adverse symptoms recorded. This initial hour observation period was subsequently followed by another 18-hour monitoring period. […] This was also the case for mice injected solely with cottonseed oil. This is in direct contrast to weekly calibration assays using the toxic control saxitoxin dihydrochloride."}, "[15]": {"settings": "background statement, organism not given; cited from earlier work"}, "[16]": {"settings": "MH broth, 37° C., read after 48 h and 72 h, University of Otago strain 1126, read-out: MRSA activity: upper and lower limits of Minimum Inhibitory Concentration"}}, "note": "Entries after “also recorded” stand apart in the source; their conditions may differ. Read-outs that look alike come from different tables or passages of the source.", "data": [{"compound": "5-hydroxy-4-(1-oxopropylcyclohexl)-2,6,6-tetramethyl-4-cyclohexene-1,3-dione [Example 5]", "values": [{"measurement": "BS activity: width of zone of growth inhibition", "setting": "[1]", "result": 12, "unit": "mm"}]}, {"compound": "CCCCCCCCCCCC(=O)C1=C(O)C(C)(C)C(=O)C(C)(C)C1=O", "note": "[Example 1, 5-hydroxy-4-(1-oxododecyl)-2,2,6,6-tetramethyl-4-cyclohexene-1,3-dione]", "values": [{"measurement": "MIC", "setting": "[2]; [16]", "result": "0.5 to 1", "unit": "µg/mL"}, {"measurement": "MIC", "setting": "[3]", "result": 2, "unit": "µg/mL"}, {"measurement": "MIC", "setting": "[4]; S. aureus ATCC25923 wild-type", "result": 1, "unit": "µg/mL"}, {"measurement": "MIC", "setting": "[4]; Staphylococcus aureus, ATCC25923, S. aureus ATCC25923 wild-type, read-out: MIC", "result": 2, "unit": "µg/mL"}, {"measurement": "MIC", "setting": "[5]", "result": 1, "unit": "µg/mL"}, {"measurement": "MIC", "setting": "[6]", "result": 2, "unit": "µg/mL"}, {"measurement": "MIC", "setting": "[7]", "result": 1, "unit": "µg/mL"}, {"measurement": "MIC", "setting": "[8]", "result": 1, "unit": "µg/mL"}, {"measurement": "MIC", "setting": "[9]", "result": 1, "unit": "µg/mL"}, {"measurement": "MIC", "setting": "[10]; E. faecalis ATCC29212 wild-type", "result": 0.5, "unit": "µg/mL"}, {"measurement": "MIC", "setting": "[10]; Enterococcus faecalis, ATCC29212, E. faecalis ATCC29212 wild-type, read-out: MIC", "result": 1, "unit": "µg/mL"}, {"measurement": "MIC", "setting": "[11]", "result": 0.5, "unit": "µg/mL"}, {"measurement": "MIC", "setting": "[11]; Enterococcus faecalis, read-out: MIC", "result": 1, "unit": "µg/mL"}, {"measurement": "MIC", "setting": "[12]; Staphylococcus aureus, read-out: MIC", "result": 1, "unit": "µg/mL"}, {"measurement": "MIC", "setting": "[12]", "result": 2, "unit": "µg/mL"}, {"measurement": "MIC", "setting": "listera monocytogenes", "result": "< 3.9", "unit": "µg/mL"}, {"measurement": "zone of inhibition at 60 µg/disc", "setting": "[1]; Bacillus subtilis, ATCC19659", "result": 3, "unit": "mm"}, {"measurement": "MBC", "setting": "[13]", "result": "≥ 8", "unit": "µg/mL"}, {"measurement": "mouse deaths", "setting": "[14]; ip in cottonseed oil, 1, 2, 4 and 8 mg/ml, 1 mL", "result": "no mouse deaths were recorded"}, {"measurement": "acute toxic effects", "setting": "[14]; listed as Compound I", "result": "no toxic effects; also recorded: no adverse toxic symptoms"}, {"measurement": "acute toxic effects", "setting": "[14]; listed as Example I", "result": "not toxic to mice"}]}, {"compound": "CCCCCCCCCC(=O)C1=C(O)C(C)(C)C(=O)C(C)(C)C1=O", "note": "[Example 2, 5-hydroxy-4-(1-oxodecyl)-2,2,6,6,-tetramethyl-4-cyclohexene-1,3-dione]", "values": [{"measurement": "BS activity: width of zone of growth inhibition", "setting": "[1]", "result": 7, "unit": "mm"}]}, {"compound": "CCCCCCCCCCCCCCCC(=O)C1=C(O)C(C)(C)C(=O)C(C)(C)C1=O", "note": "[Example 3, 5-hydroxy-4(1-oxohexadecyl)-2,2,6,6-tetramethyl-4-cyclohexene-1,3-dione]", "values": [{"measurement": "MIC", "setting": "[2]; [16]", "result": "2 to 7.8", "unit": "µg/mL"}, {"measurement": "zone of inhibition at 60 µg/disc", "setting": "[1]; Bacillus subtilis, ATCC19659", "result": 0, "unit": "mm"}, {"measurement": "melting point", "result": 39, "unit": "°C"}]}, {"compound": "CC1(C)C(=O)C(C2(C=O)CCCCC2)=C(O)C(C)(C)C1=O", "note": "[Example 4, 5-hydroxy-4(1-oxomethylcyclohexyl)-2,2,6,6-tetramethyl-4-cyclohexene-1,3dione]", "values": [{"measurement": "MIC", "setting": "[2]; [16]", "result": "15.6 to 62.5", "unit": "µg/mL"}, {"measurement": "zone of inhibition at 60 µg/disc", "setting": "[1]; Bacillus subtilis, ATCC19659", "result": 0, "unit": "mm"}, {"measurement": "melting point", "result": 47.8, "unit": "°C"}]}, {"compound": "CCCCCCCCCCCC(=O)C1=C(O)C(CC)(CC)C(=O)C(CC)(CC)C1=O", "note": "[Example 6]", "values": [{"measurement": "BS activity: width of zone of growth inhibition", "setting": "[1]", "result": 0, "unit": "mm"}]}, {"compound": "CCCCCCCCCCCC(=O)C1=C(O)C(C)(C)C(=O)C(C)(CC=C(C)C)C1=O", "note": "(centres unmarked) [Example 7, 5-hydroxy-4-(1-oxododecyl)-2-prenyl-2,6,6trimethyl-4-cyclohexene-1,3-dione]", "values": [{"measurement": "MIC", "setting": "[2]; [16]", "result": "1 to 2", "unit": "µg/mL"}, {"measurement": "zone of inhibition at 60 µg/disc", "setting": "[1]; Bacillus subtilis, ATCC19659", "result": 0, "unit": "mm"}]}, {"compound": "O=C(N[C@H](CO)[C@H](O)c1ccc([N+](=O)[O-])cc1)C(Cl)Cl", "note": "[chloramphenicol, reference compound]", "values": [{"measurement": "zone of inhibition at 30 µg/disc", "setting": "[1]; Bacillus subtilis, ATCC19659, positive control, 30 μg/disc, read-out: width of zone of inhibition", "result": 12, "unit": "mm"}]}, {"compound": "CN[C@H](CC(C)C)C(=O)N[C@H]1C(=O)N[C@@H](CC(N)=O)C(=O)N[C@H]2C(=O)N[C@H]3C(=O)N[C@H](C(=O)N[C@H](C(=O)O)c4cc(O)cc(O)c4-c4cc3ccc4O)[C@H](O)c3ccc(c(Cl)c3)Oc3cc2cc(c3O[C@@H]2O[C@H](CO)[C@@H](O)[C@H](O)[C@H]2O[C@H]2C[C@](C)(N)[C@H](O)[C@H](C)O2)Oc2ccc(cc2Cl)[C@H]1O", "note": "[vancomycin, reference compound]", "values": [{"measurement": "MIC", "setting": "[15]", "result": "approximately 2 μg/ml"}, {"measurement": "MIC", "setting": "[2]; read-out: MRSA activity: upper and lower limits of Minimum Inhibitory Concentration", "result": "1.6 to 3.1", "unit": "µg/mL"}]}]}
